Measurements reported in PMC5085765, “Discovery of Potent Carbonic Anhydrase and Acetylcholinesterase Inhibitors: 2-Aminoindan β-Lactam Derivatives” (International Journal of Molecular Sciences, 2016).

Key:
hCA I = molecular target: T1, hCA I (Homo sapiens, UniProt P00915); experiment: hCA I inhibition, esterase assay with p-nitrophenylacetate as substrate; assay type: biochemical; conditions: NPA substrate; for Ki: Lineweaver-Burk plots; for IC50: purified from human erythrocytes
T1 construct: from tissue; host or cells: human erythrocytes
Procedure: (§1) Erythrocytes were obtained from the Research Hospital at Atatürk University. The red cells were haemolysed with ice-cold water after washing with 0.9% NaCl. The hemolysate was applied to the prepared Sepharose-4B-tyrosine-sulfanylamide affinity gel. Both CA isoenzymes were purified by Sepharose-4B-L-tyrosine-sulfanilamide affinity chromatography in a single step [58, 59, 60]. Sepharose-4B-L-tyrosine-sulfanilamide was prepared according to a previous method. Thus, homogenate solution acidity was adjusted and supernatant was transferred to the previously prepared Sepharose-4B-L-tyrosine-sulphanilamide affinity column. The proteins flow in the column eluates was spectrophotometrically determined at 280 nm. All purification steps were performed at 4 °C. Protein quantity was determined at 595 nm according to the Bradford method. Bovine serum albumin was used as the standard protein [64, 65, 66]. To monitor purification of both isoenzymes, sodium dodecyl sulphate-polyacrylamide gel electrophoresis (SDS-PAGE) was used according to the procedure of Laemmli. In this application, the imaging method was performed in 10% and 3% acrylamide for the running and the stacking gel, respectively, with 0.1% SDS [68, 69, 70].
(§2) Enzyme activity was determined hydrolysis of p-nitrophenylacetate (PNA) to p-nitrophenolate at 348 nm according to the method of Verpoorte et al. and described previously. The inhibitory effects of β-lactam derivatives 2a–k were examined. To obtain the half maximal inhibitory concentration (IC50) values, CA I, and II activity was measured in the presence of β-lactam derivatives at different cuvette concentrations. Activity (%)-[β-lactam] graph was drawn for each of the β-lactam derivatives 2a–k. To determine Ki values, three different β-lactam derivative concentrations were tested. In these experiments, different substrate (PNA) concentrations were used and Lineweaver-Burk curves were drawn as previously described.

hCA II = molecular target: T2, hCA II (Homo sapiens, UniProt P00918); experiment: hCA II inhibition, esterase assay with p-nitrophenylacetate as substrate; assay type: biochemical; conditions: NPA substrate; for Ki: Lineweaver-Burk plots; for IC50: purified from human erythrocytes
T2 construct: from tissue; host or cells: human erythrocytes
Procedure: as §1, §2

T1 sequence (P00915 whole entry): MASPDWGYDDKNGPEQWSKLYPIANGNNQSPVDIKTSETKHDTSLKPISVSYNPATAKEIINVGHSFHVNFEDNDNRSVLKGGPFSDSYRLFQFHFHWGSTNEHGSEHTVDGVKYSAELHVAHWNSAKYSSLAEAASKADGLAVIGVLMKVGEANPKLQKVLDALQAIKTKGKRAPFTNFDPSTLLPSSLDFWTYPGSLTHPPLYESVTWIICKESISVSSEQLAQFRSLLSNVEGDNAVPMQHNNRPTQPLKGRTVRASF

Compound: CC(=O)O[C@@H]1C(=O)N(C2Cc3ccccc3C2)[C@@H]1c1ccccc1 (relative stereo) [Compound 2a, (3S*,4R*)-1-(2,3-Dihydro-1H-inden-2-yl)-2-oxo-4-phenylazetidin-3-yl acetate]
- Ki (hCA I): 0.44 ± 0.115 nM
- IC50 (hCA I): 0.612 nM
- Ki (hCA II): 3.54 ± 0.405 nM
- IC50 (hCA II): 5.21 nM

Compound: COc1cccc([C@@H]2[C@H](OC(C)=O)C(=O)N2C2Cc3ccccc3C2)c1 (relative stereo) [Compound 2b, (3S*,4R*)-1-(2,3-Dihydro-1H-inden-2-yl)-2-(3-methoxyphenyl)-4-oxoazetidin-3-yl acetate]
- Ki (hCA I): 1.41 ± 0.547 nM
- IC50 (hCA I): 2.3 nM
- Ki (hCA II): 3.15 ± 1.14 nM
- IC50 (hCA II): 6.42 nM

Compound: CC(=O)O[C@@H]1C(=O)N(C2Cc3ccccc3C2)[C@@H]1c1ccc(C)cc1 (relative stereo) [Compound 2c, (3S*,4R*)-1-(2,3-Dihydro-1H-inden-2-yl)-2-oxo-4-p-tolylazetidin-3-yl acetate]
- Ki (hCA I): 1.5 ± 0.657 nM
- IC50 (hCA I): 2.11 nM
- Ki (hCA II): 2.96 ± 0.157 nM
- IC50 (hCA II): 3.71 nM

Compound: CC(=O)O[C@@H]1C(=O)N(C2Cc3ccccc3C2)[C@@H]1c1cccc(C)c1 (relative stereo) [Compound 2d, (3S*,4R*)-1-(2,3-Dihydro-1H-inden-2-yl)-2-oxo-4-m-tolylazetidin-3-yl acetate]
- Ki (hCA I): 1.49 ± 0.29 nM
- IC50 (hCA I): 0.231 nM
- Ki (hCA II): 3.26 ± 0.708 nM
- IC50 (hCA II): 4.18 nM

Compound: CC(=O)O[C@@H]1C(=O)N(C2Cc3ccccc3C2)[C@@H]1c1cccc(Cl)c1 (relative stereo) [Compound 2e, (3S*,4R*)-2-(3-Chlorophenyl)-1-(2,3-dihydro-1H-inden-2-yl)-4-oxoazetidin-3-yl acetate]
- Ki (hCA I): 6.29 ± 2.07 nM
- IC50 (hCA I): 3.98 nM
- Ki (hCA II): 8.34 ± 3.53 nM
- IC50 (hCA II): 5.83 nM

Compound: CC(=O)O[C@@H]1C(=O)N(C2Cc3ccccc3C2)[C@@H]1c1ccc(Cl)c(Cl)c1 (relative stereo) [Compound 2f, (3S*,4R*)-2-(3,4-Dichlorophenyl)-1-(2,3-dihydro-1H-inden-2-yl)-4-oxoazetidin-3-yl acetate]
- Ki (hCA I): 1.16 ± 0.514 nM
- IC50 (hCA I): 1.63 nM
- Ki (hCA II): 1.5 ± 0.421 nM
- IC50 (hCA II): 5.97 nM

Compound: CC(=O)O[C@@H]1C(=O)N(C2Cc3ccccc3C2)[C@@H]1c1cccc(Br)c1 (relative stereo) [Compound 2g, (3S*,4R*)-2-(3-Bromophenyl)-1-(2,3-dihydro-1H-inden-2-yl)-4-oxoazetidin-3-yl acetate]
- Ki (hCA I): 0.35 ± 0.105 nM
- IC50 (hCA I): 0.652 nM
- Ki (hCA II): 3.39 ± 1.16 nM
- IC50 (hCA II): 3.81 nM

Compound: CC(=O)O[C@@H]1C(=O)N(C2Cc3ccccc3C2)[C@@H]1c1ccccc1Br (relative stereo) [Compound 2h, (3S*,4R*)-2-(2-Bromophenyl)-1-(2,3-dihydro-1H-inden-2-yl)-4-oxoazetidin-3-yl acetate]
- Ki (hCA I): 0.91 ± 0.143 nM
- IC50 (hCA I): 2.65 nM
- Ki (hCA II): 2.19 ± 0.921 nM
- IC50 (hCA II): 5.21 nM

Compound: CC(=O)O[C@@H]1C(=O)N(C2Cc3ccccc3C2)[C@@H]1c1ccccc1[N+](=O)[O-] (relative stereo) [Compound 2j, (3S*,4R*)-1-(2,3-Dihydro-1H-inden-2-yl)-2-(2-nitrophenyl)-4-oxoazetidin-3-yl acetate]
- Ki (hCA I): 1.09 ± 0.136 nM
- IC50 (hCA I): 4.81 nM
- Ki (hCA II): 2.88 ± 1.17 nM
- IC50 (hCA II): 5.02 nM

Compound: CC(=O)O[C@@H]1C(=O)N(C2Cc3ccccc3C2)[C@@H]1c1ccc(F)cc1 (relative stereo) [Compound 2k, (3S*,4R*)-1-(2,3-Dihydro-1H-inden-2-yl)-2-(4-fluorophenyl)-4-oxoazetidin-3-yl acetate]
- Ki (hCA I): 0.94 ± 0.43 nM
- IC50 (hCA I): 2.5 nM
- Ki (hCA II): 1.34 ± 0.539 nM
- IC50 (hCA II): 6.86 nM

Compound: CC(=O)OC1C(=O)N(C2Cc3ccccc3C2)C1c1ccc(Br)cc1 (stereo not drawn) [Compound 2ı, (3S*,4R*)-2-(4-Bromophenyl)-1-(2,3-dihydro-1H-inden-2-yl)-4-oxoazetidin-3-yl acetate]
- Ki (hCA I): 0.97 ± 0.245 nM
- IC50 (hCA I): 2.55 nM
- Ki (hCA II): 0.93 ± 0.295 nM
- IC50 (hCA II): 4.03 nM
